Experiments:
[1] = tested on: recombinant human anti-SARS-CoV antibody 03-018; format: binding; set-up: Binding of antibody 03-018 to linear peptides of the N protein of SARS-CoV Urbani / Binding of antibody 03-018 to looped/cyclic peptides of the N protein of SARS-CoV Urbani: unit not given here
[2] = tested on: control sera (pooled serum of ten healthy LUMC hospital workers; commercial negative donor pooled serum from the Dutch bloodbank); format: binding, human
[3] = tested on: antibodies in sera from SARS patients (sera 1a, 1b, 2, 6, 37, 62, London, SARS-yellow, SARS-green); format: binding, human; set-up: Binding of serum 6 to linear peptides of protein X1 of SARS-CoV Urbani / Binding of serum 37 to linear peptides of protein X1 of SARS-CoV Urbani / Binding of serum 6 to looped/cyclic peptide (PEPSCAN-ELISA) / Binding of serum 37 to looped/cyclic peptide (PEPSCAN-ELISA) / Binding of serum 37 to looped/cyclic peptides of protein X1 of SARS-CoV Urbani / Binding of serum 6 to linear peptides of protein X2 / Binding of serum 37 to linear peptides of protein X2 / Binding of serum 37 to looped/cyclic peptides of protein X2 of SARS-CoV Urbani / Binding of serum 6 to linear peptides of protein M of SARS-CoV Urbani / Binding of serum 37 to linear peptides of protein M of SARS-CoV Urbani / Binding of serum 6 to looped/cyclic peptides of protein M of SARS-CoV Urbani / Binding of serum 37 to looped/cyclic peptides of protein M of SARS-CoV Urbani / Binding of serum 6 to linear peptides of protein X3 of SARS-CoV Urbani / Binding of serum 37 to linear peptides of protein X3 of SARS-CoV Urbani / Binding of serum 37 to looped/cyclic peptides of protein X3 of SARS-CoV Urbani / Binding of serum 6 to linear peptides of protein X4 of SARS-CoV Urbani / Binding of serum 37 to linear peptides of protein X4 of SARS-CoV Urbani / Binding of serum 37 to looped/cyclic peptides of protein X4 of SARS-CoV Urbani / Binding of serum 6 to linear peptides of protein X5 of SARS-CoV Urbani / Binding of serum 37 to linear peptides of protein X5 of SARS-CoV Urbani / Binding of serum 37 to looped/cyclic peptides of protein X5 of SARS-CoV Urbani / Binding of serum 6 to linear peptides of protein N of SARS-CoV Urbani / Binding of serum 37 to linear peptides of protein N of SARS-CoV Urbani / Binding of serum 6 to linear peptide (PEPSCAN-ELISA) / Binding of serum 1a to looped/cyclic peptides of protein N of SARS-CoV Urbani / Binding of serum 1b to looped/cyclic peptides of protein N of SARS-CoV Urbani / Binding of serum 2 to looped/cyclic peptides of protein N of SARS-CoV Urbani / Binding of serum 6 to looped/cyclic peptides of protein N of SARS-CoV Urbani / Binding of serum 37 to looped/cyclic peptides of protein N of SARS-CoV Urbani / Binding of serum 62 to looped/cyclic peptides of protein N of SARS-CoV Urbani / Binding of serum London to looped/cyclic peptides of protein N of SARS-CoV Urbani / Binding of serum SARS-green to looped/cyclic peptides of protein N of SARS-CoV Urbani: unit not given here
[4] = tested on: rabbit serum obtained by immunizing a rabbit with the SARS-CoV strain Frankfurt 1; format: binding; set-up: Binding of a rabbit serum to linear peptides / Binding of a rabbit serum to looped peptides / Rabbit serum linear peptides / Rabbit serum looped peptides / Binding of a rabbit serum to linear peptides of protein N of SARS-CoV Urbani (Rabbit serum linear peptides) / Binding of a rabbit serum to looped/cyclic peptides of protein N of SARS-CoV Urbani (Rabbit serum looped peptides): unit not given here

Sequence	Binding of antibody 03-018 to linear peptides of the N protein of SARS-CoV Urbani [1]	Binding of antibody 03-018 to looped/cyclic peptides of the N protein of SARS-CoV Urbani [1]	Control Serum Blood-Bank Looped peptides [2]	Control serum Blood-bank linear peptides [2]	Control serum LUMC linear peptides [2]	Control serum LUMC looped peptides [2]	Binding of serum 1a to linear peptides of protein N of SARS-CoV Urbani [3]	Binding of serum 1a to looped/cyclic peptides of protein N of SARS-CoV Urbani [3]	Binding of serum 1b to linear peptides of protein N of SARS-CoV Urbani [3]	Binding of serum 1b to looped/cyclic peptides of protein N of SARS-CoV Urbani [3]	Binding of serum 2 to linear peptides of protein N of SARS-CoV Urbani [3]	Binding of serum 2 to looped/cyclic peptides of protein N of SARS-CoV Urbani [3]	Binding of serum 6 to linear peptides of protein N of SARS-CoV Urbani [3]	Binding of serum 6 to looped/cyclic peptides of protein N of SARS-CoV Urbani [3]	Binding of serum 37 to linear peptides of protein N of SARS-CoV Urbani [3]	Binding of serum 37 to looped/cyclic peptides of protein N of SARS-CoV Urbani [3]	Binding of serum 62 to linear peptides of protein N of SARS-CoV Urbani [3]	Binding of serum 62 to looped/cyclic peptides of protein N of SARS-CoV Urbani [3]	Binding of serum London to linear peptides of protein N of SARS-CoV Urbani [3]	Binding of serum London to looped/cyclic peptides of protein N of SARS-CoV Urbani [3]	further results
KKQPTVTLLPAADMD	0.1	0.2	0.3	0.7	0.6	0.3	0.3	0.3	0.2	0.2	0.2	0.2	0.2	0.1	1.0	0.4	0.7	0.2	0.6	0.2	Binding of serum SARS-green to linear peptides of protein N of SARS-CoV Urbani [3]: 1.3; Binding of serum SARS-green to looped/cyclic peptides of protein N of SARS-CoV Urbani [3]: 0.7; Binding of serum SARS-yellow to linear peptides of protein N of SARS-CoV Urbani [3]: 0.5; Binding of serum SARS-yellow to looped/cyclic peptides of protein N of SARS-CoV Urbani [3]: 0.2; Binding of a rabbit serum to linear peptides of protein N of SARS-CoV Urbani (Rabbit serum linear peptides) [4]: 0.1; Binding of a rabbit serum to looped/cyclic peptides of protein N of SARS-CoV Urbani (Rabbit serum looped peptides) [4]: 0.2
KKTDEAQPLPQRQKK	0.1	0.2	0.4	0.7	0.7	0.3	0.2	0.2	0.1	0.1	0.3	0.1	0.4	0.0	0.7	0.4	0.6	0.2	1.7	0.2	Binding of serum SARS-green to linear peptides of protein N of SARS-CoV Urbani [3]: 0.2; Binding of serum SARS-green to looped/cyclic peptides of protein N of SARS-CoV Urbani [3]: 0.0; Binding of serum SARS-yellow to linear peptides of protein N of SARS-CoV Urbani [3]: 1.1; Binding of serum SARS-yellow to looped/cyclic peptides of protein N of SARS-CoV Urbani [3]: 0.0; Binding of a rabbit serum to linear peptides of protein N of SARS-CoV Urbani (Rabbit serum linear peptides) [4]: 0.2; Binding of a rabbit serum to looped/cyclic peptides of protein N of SARS-CoV Urbani (Rabbit serum looped peptides) [4]: 0.0
